# Laboratory results as given in ChEMBL document CHEMBL5053502, “Too Hot to Handle: Antibacterial Peptides Identified in Ghost Pepper” (J Nat Prod, 2021).
# Activity calls are given as the source filed them. The rule behind the calls is not given here. Where a SMILES comes first, the peptide text is derived from it. Bridges are numbered along the chain shown (N, C = ends). [ ]: non-standard residue; d: D form. pGlu = O=C1CC[C@@H](C(=O)O)N1
# Experiments:
# Escherichia coli = assay: Antibacterial activity against Escherichia coli ATCC 25922 assessed as bacterial growth inhibition incubated for 4 hrs followed by resazurin addition and measured after 1 hr by fluorescence based analysis; type: functional, organism-based
# Acinetobacter baumannii [1] = assay: Antibacterial activity against Acinetobacter baumannii 5075 assessed as bacterial growth inhibition incubated for 5 hrs by absorbance based analysis; type: functional, organism-based; details: Acinetobacter baumannii, 5075, 5 h
# Acinetobacter baumannii [2] = assay: Bactericidal activity against Acinetobacter baumannii 5075 assessed as reduction in cell viability incubated for 24 hrs; type: functional
# Cell membrane [3] = assay: Induction of outer membrane permeabilization in Escherichia coli ATCC 25922 assessed as increase in NPN uptake at 10 to 40 uM by NPN-dye based fluorescence analysis; type: subcellular; details: dose 10-40 µM
# Cell membrane [4] = assay: Induction of inner membrane permeabilization in Escherichia coli ATCC 25922 assessed as increase in absorbance at 420 nm in presence of ONPG by absorbance based assay; type: subcellular
# [5] = Hemolytic activity in human RBC assessed as hemolysis at 2.5 to 40 uM incubated for 1 hr by absorbance based analysis; type: ADME, tissue-based; details: erythrocyte, dose 2.5-40 µM
# Pseudomonas aeruginosa = assay: Antibacterial activity against Pseudomonas aeruginosa 1423 assessed as bacterial growth inhibition incubated for 7 hrs by absorbance based analysis; details: Pseudomonas aeruginosa, 1423, 7 h
# Klebsiella pneumoniae = assay: Antibacterial activity against Klebsiella pneumoniae VK148 assessed as bacterial growth inhibition incubated for 4 hrs followed by resazurin addition and measured after 1 hr by fluorescence based analysis
SMILES,IC50 (Escherichia coli) [µM],IC50 (Acinetobacter baumannii [1]) [µM],MBC (Acinetobacter baumannii [2]) [µM],Activity (Cell membrane [3]) [%],Activity (Cell membrane [4]),Activity [5],IC50 (Pseudomonas aeruginosa) [µM],IC50 (Klebsiella pneumoniae) [µM]
CC[C@H](C)[C@H](NC(=O)[C@H](CCCCN)NC(=O)CNC(=O)[C@H](CC(C)C)NC(=O)CNC(=O)[C@H](CCCCN)NC(=O)[C@@H](NC(=O)[C@H](CC(C)C)NC(=O)[C@H](Cc1cnc[nH]1)NC(=O)[C@H](CCCNC(=N)N)NC(=O)CNC(=O)[C@@H](NC(=O)[C@@H](N)CCCCN)C(C)C)C(C)C)C(=O)N[C@@H](Cc1ccccc1)C(=O)N[C@@H](CCCNC(=N)N)C(=O)N[C@@H](C)C(=O)NCC(=O)N[C@H](CCCCN)C(=O)N[C@@H](C(=O)N[C@H](C(=O)N[C@@H](Cc1ccccc1)C(=O)N[C@H]1CSSC[C@@H](C(=O)N[C@@H](CCCCN)C(=O)N[C@H](C(=O)N[C@H]2CSSC[C@@H](C(=O)N[C@@H](C)C(=O)O)NC(=O)[C@@H]3CSSC[C@H](NC(=O)[C@H](CC(C)C)NC(=O)CNC(=O)[C@H](CC(N)=O)NC2=O)C(=O)N[C@@H](CC(=O)O)C(=O)N[C@@H](Cc2ccc(O)cc2)C(=O)N3)[C@@H](C)O)NC(=O)[C@H]([C@@H](C)O)NC(=O)[C@H](CC(N)=O)NC1=O)[C@@H](C)CC)C(C)C,7.6,–,–,–,–,–,–,–
"CC[C@H](C)[C@@H]1NC(=O)[C@@H]2CSSC[C@H](NC(=O)[C@H](CCCCN)NC(=O)[C@H](C)NC(=O)[C@H](CCSC)NC(=O)[C@@H](NC(=O)[C@@H](NC(=O)[C@@H]3CCCN3C(=O)[C@H](CC(=O)O)NC(=O)[C@H](CC(C)C)NC(=O)[C@@H](NC(=O)[C@H](CCC(=O)O)NC(=O)[C@@H]3CCC(=O)N3)[C@@H](C)O)[C@@H](C)CC)CSSC[C@@H](C(=O)N[C@H](C(=O)N[C@@H](CC(C)C)C(=O)O)C(C)C)NC(=O)CNC(=O)[C@H](C)NC1=O)C(=O)N[C@@H](C(C)C)C(=O)N[C@@H](CC(C)C)C(=O)N[C@@H](CCCCN)C(=O)N[C@H]1CSSC[C@H](NC(=O)[C@H](Cc3c[nH]c4ccccc34)NC(=O)[C@H](C)NC(=O)[C@H](CCCCN)NC(=O)[C@H](CCCCN)NC(=O)CNC1=O)C(=O)N[C@@H](CC(C)C)C(=O)N[C@@H]([C@@H](C)O)C(=O)N[C@@H](CCCCN)C(=O)N2 ([pGlu]ETLDPICMAKCVLKCGKKAWCLTKCIAGCVL-OH; disulfide 8-30, 12-26, 16-22)",14.5,4,8.6,100,Active,Non-Toxic,6.9,13.2
